Test results taken from EP0103830A2, “Phenylethylemine derivatires as growth stimulators” (priority 1982, dated 1984).
Counter-ions that a name gives are not always drawn.

Columns and labels:
Format in all cases: in vivo
[1] = Feeding trial in rats over 15 days (Beispiel 7), results relative to control; settings: 25 ppm in feed, 15 Tage, Ratten weiblich SPF-Wistar; Kontrolle = 100 %
Excerpt: (§1) Vor Beginn des Fütterungsversuches wurden die Ratten zwei Tage lang an die neuen Haltungsbedingungen adaptiert, wobei generell das Versuchsfutter ohne Wirkstoffzusatz verabreicht wurde. Am dritten Versuchstag wurden die Tiere randomisiert und anschließend die Versuchsgruppen so gebildet, daß sowohl die Mittelwerte als auch die Streuungen in den Körpergewichten zwischen den Gruppen gleich waren.
Der Fütterungsversuch, in dem die Futteraufnahme, der Körpergewichtszuwachs und die Futterverwertung individuell bestimmt wurden, erstreckte sich über 15 Tage.
Als Wirkstoffe wurden dem Futter untergemischt: • 1-(3,4-Dihydroxyphenyl)-2-[1-methyl-2-(3,4-methylendioxyphenyl)ethylamino]ethanolhydrochlorid (= Verbindung I), • 2-Amino-1-(3-hydroxyphenyl)ethanolhydrochlorid (= Verbindung II), • 2-Amino-1-(3-hydroxyphenyl)propanolh^ydrogentartrat (= Verbindung III), • 1-(4-Hydroxyphenyl)-2-(1-methyl-3-phenylpropylamino)-propanolhydrochlorid (= Verbindung IV), • 2-Ethylamino-1-(3-hydroxyphenyl)ethanolhydrochlorid (= Verbindung V), • 1- (3,5-Dihydroxyphenyl) -2- (3-phenylpropylamino) propanol als Salz der 4-Aminobenzoesäure (= Verbindung VI), • 1-(3-Hydroxyphenyl)-2-(1,1-dimethyl-2-phenylethylamino)-ethanol als Salz der 4-Aminobenzoesäure (= Verbindung VII), • 5-[2-[1,1-Dimethylethyl)amino]-1-hydroxyethyl]-2-hydroxy- benzamid . HCl (= Verbindung VIII)
Ratten, weiblich, SPF-Wistar 36 Tiere/Versuch Gewicht: 90 bis 150 g Futter: Haltungsdiät für Ratten mit folgender Zusammensetzung: […]

[2] = Feeding trial (Beispiel 3): feed intake, weight gain, feed conversion; settings: 25 ppm in feed, n = 6, whole trial period (13 Tage)
Excerpt: as §1, with “Die Tiere” for “Vor Beginn des Fütterungsversuches”, “2” for “die Ratten zwei”, “Tage” for “Tage lang”, “waren. Nach einer 5-tägigen Vorperiode wurde eine 8-tägige Hauptperiode durchgeführt, in denen Futteraufnahme, Zuwachs und Futterverwertung bestimmt wurden.” for “waren.”
(§2) Es wurden folgende Behandlungen geprüft: • b 1) Negativkontrolle (n = 12) • b 2) 25 ppm (Wirkstoff Herstellungsbeispiel 1) (n = 6)

[3] = Feeding trial (Beispiel 1): feed intake, weight gain, feed conversion; settings: 25 ppm in feed, n = 6, whole trial period (13 Tage), Ratten weiblich SPF Wistar
Excerpt: as §1, with “Die Tiere” for “Vor Beginn des Fütterungsversuches”, “2” for “die Ratten zwei”, “Tage” for “Tage lang”, “waren. Nach einer 5-tägigen Vorperiode wurde eine 8-tägige Hauptperiode durchgeführt, in denen Futteraufnahme, Zuwachs und Futterverwertung bestimmt wurden.” for “waren.”
as §2

[4] = Feeding trial (Beispiel 2): feed intake, weight gain, feed conversion; settings: 0,2 ppm in feed, whole trial period (12 Tage)
Excerpt: as §1, with “Die Tiere” for “Vor Beginn des Fütterungsversuches”, “2” for “die Ratten zwei”, “Tage” for “Tage lang”, “waren. Nach einer 5-tägigen Vorperiode wurde eine 7-tägige Hauptperiode durchgeführt, in denen Futteraufnahme, Zuwachs und Futterverwertung bestimmt wurden.” for “waren.”
Es wurden folgende Behandlungen geprüft: • b 1) Negativkontrolle (n = 24) • b 2) 0,2 ppm (Wirkstoff Herstellungsbeispiel 1)

[5] = Feeding trial (Beispiel 4): feed intake, weight gain, feed conversion; settings: 25 ppm in feed, n = 6, whole trial period (13 Tage)
Excerpt: as §1, with “Die Tiere” for “Vor Beginn des Fütterungsversuches”, “2” for “die Ratten zwei”, “Tage” for “Tage lang”, “waren. Nach einer 5-tägigen Vorperiode wurde eine 8-tägige Hauptperiode durchgeführt, in denen Futteraufnahme, Zuwachs und Futterverwertung bestimmt wurden.” for “waren.”
(§3) Es wurden folgende Behandlungen geprüft: • b 1) Negativkontrolle (n = 12) • b 2) 25 ppm (Wirkstoff Herstellungsbeispiel 2) (n = 6)

[6] = Feeding trial (Beispiel 5): feed intake, weight gain, feed conversion; settings: 25 ppm in feed, n = 6, whole trial period (13 Tage)
Excerpt: as §1, with “Die Tiere” for “Vor Beginn des Fütterungsversuches”, “2” for “die Ratten zwei”, “Tage” for “Tage lang”, “waren. Nach einer 5-tägigen Vorperiode wurde eine 8-tägige Hauptperiode durchgeführt, in denen Futteraufnahme, Zuwachs und Futterverwertung bestimmt wurden.” for “waren.”
as §3

[7] = Feeding trial (Beispiel 6): feed intake, weight gain, feed conversion; settings: 25 ppm in feed, n = 6, whole trial period (13 Tage)
Excerpt: as §1, with “Die Tiere” for “Vor Beginn des Fütterungsversuches”, “2” for “die Ratten zwei”, “Tage” for “Tage lang”, “waren. Nach einer 5-tägigen Vorperiode wurde eine 8-tägige Hauptperiode durchgeführt, in denen Futteraufnahme, Zuwachs und Futterverwertung bestimmt wurden.” for “waren.”
as §3

Row | Structure (SMILES) | Futteraufnahme [1] | Futterverwertung [1] | Zuwachs [1] | also measured
1 | CC(Cc1ccc2c(c1)OCO2)NCC(O)c1ccc(O)c(O)c1 (stereo not drawn) [Verbindung I, 1-(3,4-Dihydroxyphenyl)-2-[1-methyl-2-(3,4-methylendioxyphenyl)ethylamino]ethanolhydrochlorid] | 104% | 92,9% | 112% | –
2 | CC(N)C(O)c1cccc(O)c1 (stereo not drawn) [Verbindung III, 2-Amino-1-(3-hydroxyphenyl)propanolhydrogentartrat] | 99% | 96,1% | 103% | –
3 | CC(C)(C)NCC(O)c1ccc(O)c(C(N)=O)c1 (stereo not drawn) [Verbindung VIII, 5-[2-[(1,1-Dimethylethyl)amino]-1-hydroxyethyl]-2-hydroxy-benzamid . HC1] | 106% | 84,8% | 125,0% | –
4 | COc1ccc(C(O)CNC(C)(C)C)cc1 (stereo not drawn) [Herstellungsbeispiel 1, 2-t-Butylamino-1-(4-methoxyphenyl)-ethanol] | – | – | – | Futterverwertung ([2]; Negativkontrolle 5,04): 4,41 g/g; Zuwachs ([2]; Negativkontrolle 37,0): 42,4 g; Futteraufnahme ([2]; Negativkontrolle 182): 187 g; Futterverwertung ([3]; Negativkontrolle 5,62): 4,03 g/g; Zuwachs ([3]; Negativkontrolle 27,9): 43,7 g; Futteraufnahme ([3]; Negativkontrolle 153): 175 g; Futterverwertung ([4]; Negativkontrolle 4,88): 4,21 g/g; Zuwachs ([4]; Negativkontrolle 41,0): 50,5 g; Futteraufnahme ([4]; Negativkontrolle 200): 213 g
5 | NCC(O)c1cccc(O)c1 (stereo not drawn) [Verbindung II, 2-Amino-1-(3-hydroxyphenyl)ethanolhydrochlorid] | 98% | 91,6% | 107% | –
6 | CC(C)(C)NCC(O)c1cc(Br)c(O)c(Br)c1 (stereo not drawn) [Herstellungsbeispiel 2] | – | – | – | Futterverwertung ([5]; Negativkontrolle 4,75): 4,41 g/g; Zuwachs ([5]; Negativkontrolle 41,3): 45,1 g; Futteraufnahme ([5]; Negativkontrolle 196): 199 g; Futterverwertung ([6]; Negativkontrolle 5,62): 3,96 g/g; Zuwachs ([6]; Negativkontrolle 27,9): 43,4 g; Futteraufnahme ([6]; Negativkontrolle 152): 171 g; Futterverwertung ([7]; Negativkontrolle 5,04): 4,36 g/g; Zuwachs ([7]; Negativkontrolle 37,0): 43,2 g; Futteraufnahme ([7]; Negativkontrolle 182): 183 g
7 | CC(CCc1ccccc1)NC(C)C(O)c1ccc(O)cc1 (stereo not drawn) [Verbindung IV, 1-(4-Hydroxyphenyl)-2-(1-methyl-3-phenylpropylamino)-propanolhydrochlorid] | 101,7% | 96,9% | 105% | –
8 | CCNCC(O)c1cccc(O)c1 (stereo not drawn) [Verbindung V, 2-Ethylamino-1-(3-hydroxyphenyl)ethanolhydrochlorid] | 104% | 90,4% | 115% | –
